{"source": "patent US20100004330A1", "about": "“ANTI-OXIDATIVE CONTENT MATERIAL USED IN DRINK AND FOOD MANUFACTURING METHOD” (priority 2008, published 2010)", "key": {"[1]": {"tested_on": "thiobarbituric acid-reactive substances (TBARS), lipid peroxidation", "details": "single carotenoid; Control (no antioxidants) 100 ± 9; cited from earlier work"}, "macular degeneration": {"tested_on": "macular degeneration", "details": "person ingesting 6 mg per day; cited from earlier work"}, "tissue factor": {"tested_on": "tissue factor", "details": "added into micro-emulsion; 0.5, 2 and 10 μmol/L; P<0.01; cited from earlier work"}, "[2]": {"experiment": "antioxidant activity testing (DPPH scavenging activity)", "format": "biochemical", "details": "corresponds to ppm VitE", "description": "According to the present invention, the products of the Beta-carotene, lutein, lycopene, and of mixture of these three (in 0.5:4:4 optimal weight ratio) from the Allied Biochemical Industrial Co., Ltd were sent to “Food Industrial Research And Development Institute” (331 Shih-Pin Road, Hsinchu, 300 Taiwan) for antioxidant activity testing (DPPH scavenging activity)."}, "myocardial infarction": {"tested_on": "myocardial infarction", "details": "contrast of the 10th and 90th percentiles of carotenoid level in adipose tissue; cited from earlier work"}, "cardiovascular disease": {"tested_on": "cardiovascular disease", "details": "middle-aged or elderly; cited from earlier work"}}, "data": [{"smiles": "CC1=C[C@H](O)CC(C)(C)[C@H]1/C=C/C(C)=C/C=C/C(C)=C/C=C/C=C(C)/C=C/C=C(C)/C=C/C1=C(C)C[C@@H](O)CC1(C)C", "note": "[Lutein]", "values": [{"measurement": "TBARS (%) measured", "setting": "[1]", "value": "77 ± 9", "unit": "%"}, {"measurement": "lower risk for macular degeneration", "setting": "macular degeneration", "value": 43, "unit": "%"}, {"measurement": "tissue factor activity", "setting": "tissue factor", "value": "suppress tissue factor activity"}, {"measurement": "Scavenging rate/g", "setting": "[2]", "value": "correspond to 7.69 × 10^2 ppm VitE"}]}, {"smiles": "CC(C)=CCC/C(C)=C/C=C/C(C)=C/C=C/C(C)=C/C=C/C=C(C)/C=C/C=C(C)/C=C/C=C(\\C)CCC=C(C)C", "note": "[Lycopene]", "values": [{"measurement": "TBARS (%) measured", "setting": "[1]", "value": "25 ± 10", "unit": "%"}, {"measurement": "odds ratio, myocardial infarction", "setting": "myocardial infarction", "value": 0.52}, {"measurement": "tissue factor activity", "setting": "tissue factor", "value": "suppress tissue factor activity"}, {"measurement": "Scavenging rate/g", "setting": "[2]", "value": "correspond to 2.35 × 10^4 ppm VitE"}]}, {"smiles": "CC1=C(/C=C/C(C)=C/C=C/C(C)=C/C=C/C=C(C)/C=C/C=C(C)/C=C/C2=C(C)CCCC2(C)C)C(C)(C)CCC1", "note": "[β-carotene]", "values": [{"measurement": "TBARS (%) measured", "setting": "[1]", "value": "73 ± 9", "unit": "%"}, {"measurement": "tissue factor activity", "setting": "tissue factor", "value": "suppress tissue factor activity"}, {"measurement": "reduction of the risk of cardiovascular disease", "setting": "cardiovascular disease", "value": 45, "unit": "%"}, {"measurement": "Scavenging rate/g", "setting": "[2]", "value": "correspond to 7.08 × 10^3 ppm VitE"}]}]}
